Assay results reported in patent publication US11384066B1, “Heterocyclic compounds useful as aurora a selective inhibitors” (Jacobio Pharmaceuticals Co., Ltd., priority 2020, dated 2022).

How the values were obtained:
Aurora B = Aurora B (Homo sapiens (Human), UniProt Q96GD4); assay: Aurora B kinase assay (mobility shift assay); type: biochemical; conditions: ratio of Aurora B IC50 to Aurora A IC50
Aurora A = Aurora A (Homo sapiens (Human), UniProt O14965); assay: Aurora A kinase assay (mobility shift assay); type: biochemical
Chain of Aurora A (O14965 whole entry): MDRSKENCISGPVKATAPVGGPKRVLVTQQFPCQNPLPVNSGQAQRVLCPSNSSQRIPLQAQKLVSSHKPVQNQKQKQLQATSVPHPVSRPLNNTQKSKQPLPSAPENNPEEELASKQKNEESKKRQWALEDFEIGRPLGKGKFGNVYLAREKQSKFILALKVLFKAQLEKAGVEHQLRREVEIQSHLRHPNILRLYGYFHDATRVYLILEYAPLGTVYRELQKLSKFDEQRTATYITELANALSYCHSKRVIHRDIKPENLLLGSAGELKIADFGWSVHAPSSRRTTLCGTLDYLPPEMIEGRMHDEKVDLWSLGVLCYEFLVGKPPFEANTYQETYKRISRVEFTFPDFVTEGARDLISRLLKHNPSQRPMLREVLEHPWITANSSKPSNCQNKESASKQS
Method in brief: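 Mobility shift assay of human Aurora A and Aurora B in 50 mM HEPES pH 7.5, 10 mM MgCl2, 2 mM DTT, 0.01% Brij-35. Enzyme was preincubated 10 min with compound at room temperature, then ATP plus kinase substrate 21 were added. Substrate conversion was read on a Caliper reader, normalized to no-enzyme and no-compound controls, and IC50 came from a variable-slope four-parameter fit.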

NCI-H2171 cells = assay: Cell proliferation assay (CellTiter-Glo), NCI-H2171; type: cell-based; conditions: Homo sapiens, NCI-H2171, 120 h, 5 days
Method: (§1) Example B: Cell Proliferation Assay
(§2) NCI-H2171 and NCI-H446 cell proliferation analysis were conducted by CellTiter-Glo (Promega, Cat #G1111). The cells will be harvested respectively during the logarithmic growth period and counted with hemocytometer. […] Adjust NCI-H2171 and NCI-H446 cells concentrations to 1.0×10^5 cells/mL with complete medium (RPMI-1640 medium supplemented with 10% (v/v) fetal bovine serum). 100 μL/cell suspensions were added to 96-well plates, and the final cell densities were 1.0×10^4 cells/well. The plate will be cultured overnight in 5% CO2 and 95% humidity at 37° C. The next day, the test compound was dissolved in DMSO as stock solution. Then the different concentrations of compound were added into 96-well plates. The plates will be cultured for 5 days, then measured by means of CellTiter-Glo assay. 50 μL/cell CellTiter-Glo reagent was added into 96-well plates. Shock incubation for 5 min and then stand incubation for 10 min at room temperature. Record the Luminosity values using an microplate spectrophotometer (Spark, Tecan). Fit the data using GraphPad 8.0 and obtain IC50 values.
(§3) Formula: Survival (%)=(Lumtest−Lummedia control)/(Lumcell control−Lummedia control)×100%

[1] = test system: NCI-H446 human small cell lung cancer xenograft; assay: In vivo anti-tumor efficacy, NCI-H446 xenograft model; design: species or system BALB/c nude mice; conditions: 15 mg/kg po., BID × 10days, QD × 19days, treatment 29 days, Table C does not say which xenograft (NCI-H446 or NCI-H69); for TV (mm^3): mean ± sem
Method: This study is to examine the anti-tumor efficacy of test compounds in NCI-H446 and NCI-H69 human small cell lung cancer xenograft model in BALB/c nude mice. Each mouse was inoculated subcutaneously at the right flank region with NCI-H446 (3×10^6) and NCI-H69 cells (5×10^6) in 0.1 mL of PBS and Matrigel (1:1) for tumor development. The mouse were randomized according to tumor size and weight, the treatment began when the mean tumor size reached 100-200 mm^3. Anti-tumor activity was assessed according to relative tumor inhibition rate (TGI).
Tumor volumes were measured in two dimensions using a caliper, and the volume was expressed in mm^3 using the formula: V=0.5 a×b^2 where a and b are the long and short diameters of the tumor, respectively. Statistical analysis of difference in tumor volume among the groups were performed using one-way ANOVA. All data was analyzed using SPSS 22.0 software, p<0.05 was considered to be statistically significant.

NCI-H446 cells = assay: Cell proliferation assay (CellTiter-Glo), NCI-H446; type: cell-based; conditions: Homo sapiens, NCI-H446, 120 h, 5 days
Method: as §1, §2, §3

PK in rat = type: in vivo; conditions: rat, plasma, SD male rats; for clearance / Vd: IV: 3 mg/kg; for Vd: read-out: Vss; for AUC(0-t) / half-life / Cmax: PO: 10 mg/kg; for bioavailability: PO: 10 mg/kg vs IV: 3 mg/kg; for Cmax: read-out: Cmax
Method: The compounds were dissolved into 10% DMSO, 30% PEG400, and 60% saline to obtain a solution. SD male rats were given the compound orally and intravenously. Then plasma samples were collected at 0 hour (pre-dose), 0.25, 0.5, 1, 2, 4, 7, 24 hours post-dose. Plasma drug concentration was detected by LC-MS/MS. Pharmacokinetic parameters were calculated using WinNonlin's software with non-compartmental model.

Chain of Aurora B (Q96GD4 whole entry): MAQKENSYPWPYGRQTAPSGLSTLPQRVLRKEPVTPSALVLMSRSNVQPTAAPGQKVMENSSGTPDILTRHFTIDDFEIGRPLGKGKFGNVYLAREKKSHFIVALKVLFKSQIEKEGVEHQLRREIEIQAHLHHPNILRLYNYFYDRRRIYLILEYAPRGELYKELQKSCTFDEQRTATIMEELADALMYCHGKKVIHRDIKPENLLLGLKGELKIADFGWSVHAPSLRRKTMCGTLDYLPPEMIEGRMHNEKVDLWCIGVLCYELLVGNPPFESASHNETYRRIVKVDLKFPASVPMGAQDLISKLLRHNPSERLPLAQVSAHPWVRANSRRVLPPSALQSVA

Row | IC50 Ratio Aur B/Aur A (Aurora B) | IC50 (Aurora A) | IC50 (NCI-H2171 cells) | IC50 (NCI-H446 cells) | clearance (PK in rat) | Vd (PK in rat) | AUC(0-t) (PK in rat) | half-life (PK in rat) | bioavailability (PK in rat) | Cmax (PK in rat) | Compound | TGITV(%) [1] | TV (mm^3) [1]
1 | 1311 | 0.59 nM | 30 nM | 80 nM | 2.74 mL/min/kg | 0.56 L/kg | 179 µg·h/mL | 4.25 h | 168% | 26600 ng/mL | Cc1cc(Nc2nc(C[C@@]3(C(=O)O)CCN(Cc4cccc(Cl)c4F)[C@H](C)C3)ccc2F)[nH]n1 [Example 5, (2R,4R)-1-(3-chloro-2-fluorobenzyl)-4-((5-fluoro-6-((3-methyl-1H-pyrazol-5-yl)amino)pyridin-2-yl)methyl)-2-methylpiperidine-4-carboxylic acid] | 98% | 27 ± 5 mm^3
2 | 443 | 0.7 nM | 18 nM | 24 nM | 1.05 mL/min/kg | 0.22 L/kg | 202 µg·h/mL | 2.95 h | 127% | 21000 ng/mL | Cc1cc(Nc2cc(C)c(F)c(C[C@@]3(C(=O)O)CCN(Cc4cccc(Cl)c4F)[C@H](C)C3)n2)n[nH]1 [Example 49, (2R,4R)-1-(3-chloro-2-fluorobenzyl)-4-((3-fluoro-4-methyl-6-((5-methyl-1H-pyraz-ol-3-yl)amino)pyridin-2-yl)methyl)-2-methylpiperidine-4-carboxylic acid] | 90% | 160 ± 26 mm^3
3 | 582 | 0.64 nM | 23 nM | 56 nM | – | – | – | – | – | – | Cc1cc(Nc2cc(Cl)c(F)c(C[C@@]3(C(=O)O)CCN(Cc4cccc(Cl)c4F)[C@H](C)C3)n2)n[nH]1 [Example 72, (2R,4R)-1-(3-chloro-2-fluorobenzyl)-4-((4-chloro-3-fluoro-6-((5-methyl-1H-pyrazol-3-yl)amino)pyridin-2-yl)methyl)-2-methylpiperidine-4-carboxylic acid] | 89% | 176 ± 25 mm^3
4 | 1219 | 0.37 nM | 13 nM | 32 nM | 0.585 mL/min/kg | 0.22 L/kg | 236 µg·h/mL | 4.61 h | 85.8% | 28900 ng/mL | Cc1cc(Nc2nc(C[C@@]3(C(=O)O)CCN(Cc4cccc(Cl)c4F)[C@H](C)C3)cc(C)c2F)n[nH]1 [Example 78, (2R,4R)-1-(3-chloro-2-fluorobenzyl)-4-((5-fluoro-4-methyl-6-((5-methyl-1H-pyrazol-3-yl)amino)pyridin-2-yl)methyl)-2-methylpiperidine-4-carboxylic acid] | 96% | 65 ± 14 mm^3
